Results reported in the NIST ThermoML archive (doi:10.1021/acs.jced.6b00121).

Experiment: xn = mol fraction of the nth substance listed
Conditions: 100 kPa, Liquid; for viscosity: Falling or rolling sphere viscometry; for mass density: Vibrating tube method

CCCCCCCCCCC [undecane] + CCCCCO
Conditions	mass density [kg/m3]	viscosity [mPa·s]
283.15 K, x1 = 0.0999	808.13	4.269
283.15 K, x1 = 0.2	796.68	3.406
283.15 K, x1 = 0.3026	786.76	2.731
283.15 K, x1 = 0.4001	778.65	2.21
283.15 K, x1 = 0.5022	771.41	1.884
283.15 K, x1 = 0.5976	765.49	1.694
283.15 K, x1 = 0.6984	760.02	1.551
283.15 K, x1 = 0.801	755.27	1.452
283.15 K, x1 = 0.8822	751.87	1.413
283.15 K, x1 = 1	747.78	1.371
288.15 K, x1 = 0.0999	804.49	3.679
288.15 K, x1 = 0.2	792.98	2.958
288.15 K, x1 = 0.3026	783.04	2.39
288.15 K, x1 = 0.4001	774.92	1.945
288.15 K, x1 = 0.5022	767.66	1.689
288.15 K, x1 = 0.5976	761.74	1.535
288.15 K, x1 = 0.6984	756.3	1.419
288.15 K, x1 = 0.801	751.55	1.335
288.15 K, x1 = 0.8822	748.15	1.287
288.15 K, x1 = 1	744.06	1.249
293.15 K, x1 = 0.0999	800.81	3.187
293.15 K, x1 = 0.2	789.27	2.58
293.15 K, x1 = 0.3026	779.3	2.103
293.15 K, x1 = 0.4001	771.17	1.743
293.15 K, x1 = 0.5022	763.91	1.529
293.15 K, x1 = 0.5976	757.99	1.404
293.15 K, x1 = 0.6984	752.55	1.308
293.15 K, x1 = 0.801	747.81	1.236
293.15 K, x1 = 0.8822	744.41	1.176
293.15 K, x1 = 1	740.35	1.145
298.15 K, x1 = 0.0999	797.12	2.777
298.15 K, x1 = 0.2	785.54	2.26
298.15 K, x1 = 0.3026	775.54	1.862
298.15 K, x1 = 0.4001	767.4	1.571
298.15 K, x1 = 0.5022	760.13	1.395
298.15 K, x1 = 0.5976	754.22	1.295
298.15 K, x1 = 0.6984	748.78	1.214
298.15 K, x1 = 0.801	744.05	1.153
298.15 K, x1 = 0.8822	740.67	1.08
298.15 K, x1 = 1	736.64	1.062
303.15 K, x1 = 0.0999	793.4	2.428
303.15 K, x1 = 0.2	781.78	1.995
303.15 K, x1 = 0.3026	771.75	1.656
303.15 K, x1 = 0.4001	763.6	1.428
303.15 K, x1 = 0.5022	756.32	1.283
303.15 K, x1 = 0.5976	750.42	1.202
303.15 K, x1 = 0.6984	745	1.095
303.15 K, x1 = 0.801	740.28	1.026
303.15 K, x1 = 0.8822	736.92	0.999
303.15 K, x1 = 1	732.93	0.982
308.15 K, x1 = 0.0999	789.65	2.136
308.15 K, x1 = 0.2	777.98	1.768
308.15 K, x1 = 0.3026	767.93	1.481
308.15 K, x1 = 0.4001	759.77	1.29
308.15 K, x1 = 0.5022	752.5	1.153
308.15 K, x1 = 0.5976	746.6	1.062
308.15 K, x1 = 0.6984	741.2	0.998
308.15 K, x1 = 0.801	736.49	0.951
308.15 K, x1 = 0.8822	733.14	0.922
308.15 K, x1 = 1	729.23	0.91
313.15 K, x1 = 0.0999	785.86	1.887
313.15 K, x1 = 0.2	774.15	1.572
313.15 K, x1 = 0.3026	764.08	1.33
313.15 K, x1 = 0.4001	755.91	1.17
313.15 K, x1 = 0.5022	748.64	1.058
313.15 K, x1 = 0.5976	742.76	0.976
313.15 K, x1 = 0.6984	737.36	0.924
313.15 K, x1 = 0.801	732.67	0.881
313.15 K, x1 = 0.8822	729.34	0.859
313.15 K, x1 = 1	725.53	0.847
318.15 K, x1 = 0.0999	782.03	1.675
318.15 K, x1 = 0.2	770.28	1.409
318.15 K, x1 = 0.3026	760.19	1.2
318.15 K, x1 = 0.4001	752.02	1.065
318.15 K, x1 = 0.5022	744.75	0.972
318.15 K, x1 = 0.5976	738.88	0.902
318.15 K, x1 = 0.6984	733.51	0.856
318.15 K, x1 = 0.801	728.83	0.819
318.15 K, x1 = 0.8822	725.53	0.801
318.15 K, x1 = 1	721.82	0.79
323.15 K, x1 = 0.0999	–	1.468
323.15 K, x1 = 0.2	–	1.266
323.15 K, x1 = 0.3026	–	1.087
323.15 K, x1 = 0.4001	–	0.974
323.15 K, x1 = 0.5022	–	0.896
323.15 K, x1 = 0.5976	–	0.836
323.15 K, x1 = 0.6984	–	0.796
323.15 K, x1 = 0.801	–	0.764
323.15 K, x1 = 0.8822	–	0.748
323.15 K, x1 = 1	–	0.74
